# Results reported in PMC4515243, “Phase 1 pharmacokinetic study of the oral pan-AKT inhibitor MK-2206 in Japanese patients with advanced solid tumors” (Cancer Chemotherapy and Pharmacology, 2015).
# Several values for one entry are separate records, joined by “and”; a condition that tells them apart may be missing. Equal entries are not always repeated.
# System: Japanese patients with advanced solid tumors
# Test: phase 1 safety and tolerability (DLT, adverse events) in Japanese patients;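 note: toxicities graded by NCI CTCAE version 3.0, treatment given until disease progression or unacceptable toxicity, three to nine patients enrolled per dose level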
# [1] = all cohorts (n = 24), all treatment cycles
# Source text: Treatment was continued until disease progression or the occurrence of an unacceptable toxicity.
# A minimum of three and up to nine patients were enrolled at each dose level based on the toxicity probability intervals [9].
# Adverse events were graded using the National Cancer Institute Common Terminology Criteria for Adverse Events, version 3.0.
smiles,measurement,setting,value
NC1(c2ccc(-c3nc4ccn5c(=O)[nH]nc5c4cc3-c3ccccc3)cc2)CCC1 [MK-2206],"Eosinophilia, drug-related adverse event, patients","135 mg QW (n = 3), Grades 3–5",0
same,"Erythema multiforme, drug-related adverse event, patients","135 mg QW (n = 3), Grades 3–5",0
same,"Fatigue, drug-related adverse event, patients","135 mg QW (n = 3), Grades 3–5",0
same,"HbA1C increased, drug-related adverse event, patients","135 mg QW (n = 3), Grades 3–5",0
same,"Hyperglycemia, drug-related adverse event, patients","135 mg QW (n = 3), Grades 3–5",0
same,"Hypernatremia, drug-related adverse event, patients","135 mg QW (n = 3), Grades 3–5",0
same,"Hypoalbuminemia, drug-related adverse event, patients","135 mg QW (n = 3), Grades 3–5",0
same,"Hypokalemia, drug-related adverse event, patients","135 mg QW (n = 3), Grades 3–5",0
same,"Insulin c-peptide increased, drug-related adverse event, patients","135 mg QW (n = 3), Grades 3–5",0
same,"Leukopenia, drug-related adverse event, patients","135 mg QW (n = 3), Grades 3–5",0
same,"Localized edema, drug-related adverse event, patients","135 mg QW (n = 3), Grades 3–5",0
same,"Lymphopenia, drug-related adverse event, patients","135 mg QW (n = 3), Grades 3–5",0
same,"Nausea, drug-related adverse event, patients","135 mg QW (n = 3), Grades 3–5",0
same,"Neutropenia, drug-related adverse event, patients","135 mg QW (n = 3), Grades 3–5",0
same,"Palmar-plantar erythrodysaesthesia syndrome, drug-related adverse event, patients","135 mg QW (n = 3), Grades 3–5",0
same,"Pruritus, drug-related adverse event, patients","135 mg QW (n = 3), Grades 3–5",0
same,"Pyrexia, drug-related adverse event, patients","135 mg QW (n = 3), Grades 3–5",0
same,"Rash, drug-related adverse event, patients","135 mg QW (n = 3), Grades 3–5",0
same,"Stomatitis, drug-related adverse event, patients","135 mg QW (n = 3), Grades 3–5",0
same,"Vomiting, drug-related adverse event, patients","135 mg QW (n = 3), Grades 3–5",0
same,patients who discontinued treatment because of grade 2 rash,200 mg QW,One patient
same,patients with DLTs during Cycle 1,200 mg QW,Three of the nine
same,"ALT increased, drug-related adverse event, patients","200 mg QW (n = 9), All grades",3
same,"Blood creatinine increased, drug-related adverse event, patients","200 mg QW (n = 9), All grades",6
same,"Decreased appetite, drug-related adverse event, patients","200 mg QW (n = 9), All grades",4
same,"Diarrhea, drug-related adverse event, patients","200 mg QW (n = 9), All grades",3
same,"Dry skin, drug-related adverse event, patients","200 mg QW (n = 9), All grades",2
same,"Eosinophil count increased, drug-related adverse event, patients","200 mg QW (n = 9), All grades",5
same,"Eosinophilia, drug-related adverse event, patients","200 mg QW (n = 9), All grades",4
same,"Erythema multiforme, drug-related adverse event, patients","200 mg QW (n = 9), All grades",4
same,"Fatigue, drug-related adverse event, patients","200 mg QW (n = 9), All grades",4
same,"HbA1C increased, drug-related adverse event, patients","200 mg QW (n = 9), All grades",4
same,"Hyperglycemia, drug-related adverse event, patients","200 mg QW (n = 9), All grades",6
same,"Hypernatremia, drug-related adverse event, patients","200 mg QW (n = 9), All grades",4
same,"Hypoalbuminemia, drug-related adverse event, patients","200 mg QW (n = 9), All grades",2
same,"Hypokalemia, drug-related adverse event, patients","200 mg QW (n = 9), All grades",2
same,"Insulin c-peptide increased, drug-related adverse event, patients","200 mg QW (n = 9), All grades",5
same,"Leukopenia, drug-related adverse event, patients","200 mg QW (n = 9), All grades",8
same,"Localized edema, drug-related adverse event, patients","200 mg QW (n = 9), All grades",4
same,"Lymphopenia, drug-related adverse event, patients","200 mg QW (n = 9), All grades",2
same,"Nausea, drug-related adverse event, patients","200 mg QW (n = 9), All grades",3
same,"Neutropenia, drug-related adverse event, patients","200 mg QW (n = 9), All grades",4
same,"Palmar-plantar erythrodysaesthesia syndrome, drug-related adverse event, patients","200 mg QW (n = 9), All grades",2
same,"Pruritus, drug-related adverse event, patients","200 mg QW (n = 9), All grades",5
same,"Pyrexia, drug-related adverse event, patients","200 mg QW (n = 9), All grades",5
same,"Rash, drug-related adverse event, patients","200 mg QW (n = 9), All grades",6
same,"Stomatitis, drug-related adverse event, patients","200 mg QW (n = 9), All grades",6
same,"Vomiting, drug-related adverse event, patients","200 mg QW (n = 9), All grades",3
same,"ALT increased, drug-related adverse event, patients","200 mg QW (n = 9), Grades 3–5",1
same,"Blood creatinine increased, drug-related adverse event, patients","200 mg QW (n = 9), Grades 3–5",0
same,"Decreased appetite, drug-related adverse event, patients","200 mg QW (n = 9), Grades 3–5",1
same,"Diarrhea, drug-related adverse event, patients","200 mg QW (n = 9), Grades 3–5",0
same,"Dry skin, drug-related adverse event, patients","200 mg QW (n = 9), Grades 3–5",0
same,"Eosinophil count increased, drug-related adverse event, patients","200 mg QW (n = 9), Grades 3–5",0
same,"Eosinophilia, drug-related adverse event, patients","200 mg QW (n = 9), Grades 3–5",0
same,"Erythema multiforme, drug-related adverse event, patients","200 mg QW (n = 9), Grades 3–5",2
same,"Fatigue, drug-related adverse event, patients","200 mg QW (n = 9), Grades 3–5",0
same,"HbA1C increased, drug-related adverse event, patients","200 mg QW (n = 9), Grades 3–5",0
same,"Hyperglycemia, drug-related adverse event, patients","200 mg QW (n = 9), Grades 3–5",2
same,"Hypernatremia, drug-related adverse event, patients","200 mg QW (n = 9), Grades 3–5",1
same,"Hypoalbuminemia, drug-related adverse event, patients","200 mg QW (n = 9), Grades 3–5",0
same,"Hypokalemia, drug-related adverse event, patients","200 mg QW (n = 9), Grades 3–5",0
same,"Insulin c-peptide increased, drug-related adverse event, patients","200 mg QW (n = 9), Grades 3–5",0
same,"Leukopenia, drug-related adverse event, patients","200 mg QW (n = 9), Grades 3–5",1
same,"Localized edema, drug-related adverse event, patients","200 mg QW (n = 9), Grades 3–5",0
same,"Lymphopenia, drug-related adverse event, patients","200 mg QW (n = 9), Grades 3–5",2
same,"Nausea, drug-related adverse event, patients","200 mg QW (n = 9), Grades 3–5",1
same,"Neutropenia, drug-related adverse event, patients","200 mg QW (n = 9), Grades 3–5",0
same,"Palmar-plantar erythrodysaesthesia syndrome, drug-related adverse event, patients","200 mg QW (n = 9), Grades 3–5",0
same,"Pruritus, drug-related adverse event, patients","200 mg QW (n = 9), Grades 3–5",0
same,"Pyrexia, drug-related adverse event, patients","200 mg QW (n = 9), Grades 3–5",0
same,"Rash, drug-related adverse event, patients","200 mg QW (n = 9), Grades 3–5",0
same,"Stomatitis, drug-related adverse event, patients","200 mg QW (n = 9), Grades 3–5",0
same,"Vomiting, drug-related adverse event, patients","200 mg QW (n = 9), Grades 3–5",0
same,time until onset of DLTs,"200 mg QW, grade 3 facial edema and grade 3 erythema multiforme",10 days
same,time until onset of DLTs,"200 mg QW, grade 3 hyperglycemia and grade 3 erythema multiforme",11 days
same,time until onset of DLT,"200 mg QW, grade 4 hyponatremia",10 days
same,"ALT increased, drug-related adverse event, patients","Total (n = 24), All grades",4
same,"Blood creatinine increased, drug-related adverse event, patients","Total (n = 24), All grades",8/24 and 8
same,"Decreased appetite, drug-related adverse event, patients","Total (n = 24), All grades",7
same,"Diarrhea, drug-related adverse event, patients","Total (n = 24), All grades",10/24 and 10
same,"Dry skin, drug-related adverse event, patients","Total (n = 24), All grades",5
same,"Eosinophil count increased, drug-related adverse event, patients","Total (n = 24), All grades",7
same,"Eosinophilia, drug-related adverse event, patients","Total (n = 24), All grades",13/24 and 13
same,"Erythema multiforme, drug-related adverse event, patients","Total (n = 24), All grades",4
same,"Fatigue, drug-related adverse event, patients","Total (n = 24), All grades",10
same,"HbA1C increased, drug-related adverse event, patients","Total (n = 24), All grades",7
same,"Hyperglycemia, drug-related adverse event, patients","Total (n = 24), All grades",12/24 and 12
same,"Hypernatremia, drug-related adverse event, patients","Total (n = 24), All grades",5
same,"Hypoalbuminemia, drug-related adverse event, patients","Total (n = 24), All grades",4
same,"Hypokalemia, drug-related adverse event, patients","Total (n = 24), All grades",4
same,"Insulin c-peptide increased, drug-related adverse event, patients","Total (n = 24), All grades",16/24 and 16
same,"Leukopenia, drug-related adverse event, patients","Total (n = 24), All grades",12/24 and 12
same,"Localized edema, drug-related adverse event, patients","Total (n = 24), All grades",4
same,"Lymphopenia, drug-related adverse event, patients","Total (n = 24), All grades",9/24 and 9
same,"Nausea, drug-related adverse event, patients","Total (n = 24), All grades",5
same,"Neutropenia, drug-related adverse event, patients","Total (n = 24), All grades",9/24 and 9
same,"Palmar-plantar erythrodysaesthesia syndrome, drug-related adverse event, patients","Total (n = 24), All grades",4
same,"Pruritus, drug-related adverse event, patients","Total (n = 24), All grades",10
same,"Pyrexia, drug-related adverse event, patients","Total (n = 24), All grades",13/24 and 13
same,"Rash, drug-related adverse event, patients","Total (n = 24), All grades",20/24 and 20
same,"Stomatitis, drug-related adverse event, patients","Total (n = 24), All grades",14/24 and 14
same,"Vomiting, drug-related adverse event, patients","Total (n = 24), All grades",4
same,"ALT increased, drug-related adverse event, patients","Total (n = 24), Grades 3–5",1
same,"Blood creatinine increased, drug-related adverse event, patients","Total (n = 24), Grades 3–5",0
same,"Decreased appetite, drug-related adverse event, patients","Total (n = 24), Grades 3–5",1
same,"Diarrhea, drug-related adverse event, patients","Total (n = 24), Grades 3–5",1
same,"Dry skin, drug-related adverse event, patients","Total (n = 24), Grades 3–5",0
same,"Eosinophil count increased, drug-related adverse event, patients","Total (n = 24), Grades 3–5",0
same,"Eosinophilia, drug-related adverse event, patients","Total (n = 24), Grades 3–5",0
same,"Erythema multiforme, drug-related adverse event, patients","Total (n = 24), Grades 3–5",2
same,"Fatigue, drug-related adverse event, patients","Total (n = 24), Grades 3–5",0
same,"HbA1C increased, drug-related adverse event, patients","Total (n = 24), Grades 3–5",0
same,"Hyperglycemia, drug-related adverse event, patients","Total (n = 24), Grades 3–5",2
same,"Hypernatremia, drug-related adverse event, patients","Total (n = 24), Grades 3–5",1
same,"Hypoalbuminemia, drug-related adverse event, patients","Total (n = 24), Grades 3–5",0
same,"Hypokalemia, drug-related adverse event, patients","Total (n = 24), Grades 3–5",0
same,"Insulin c-peptide increased, drug-related adverse event, patients","Total (n = 24), Grades 3–5",0
same,"Leukopenia, drug-related adverse event, patients","Total (n = 24), Grades 3–5",1
same,"Localized edema, drug-related adverse event, patients","Total (n = 24), Grades 3–5",0
same,"Lymphopenia, drug-related adverse event, patients","Total (n = 24), Grades 3–5",6
same,"Nausea, drug-related adverse event, patients","Total (n = 24), Grades 3–5",1
same,"Neutropenia, drug-related adverse event, patients","Total (n = 24), Grades 3–5",1
same,"Palmar-plantar erythrodysaesthesia syndrome, drug-related adverse event, patients","Total (n = 24), Grades 3–5",0
same,"Pruritus, drug-related adverse event, patients","Total (n = 24), Grades 3–5",0
same,"Pyrexia, drug-related adverse event, patients","Total (n = 24), Grades 3–5",0
same,"Rash, drug-related adverse event, patients","Total (n = 24), Grades 3–5",1
same,"Stomatitis, drug-related adverse event, patients","Total (n = 24), Grades 3–5",0
same,"Vomiting, drug-related adverse event, patients","Total (n = 24), Grades 3–5",0
same,treatment-related deaths,all cohorts,No treatment-related deaths
same,"diarrhea related to MK-2206, percent of patients",[1],41.7%
same,"elevated blood creatinine level related to MK-2206, percent of patients",[1],33.3%
same,"elevated insulin c-peptide level related to MK-2206, percent of patients",[1],66.7%
same,"eosinophilia related to MK-2206, percent of patients",[1],54.2%
same,"hyperglycemia related to MK-2206, percent of patients",[1],50.0%
same,"leukopenia related to MK-2206, percent of patients",[1],50.0%
same,"lymphopenia related to MK-2206, percent of patients",[1],37.5%
same,"neutropenia related to MK-2206, percent of patients",[1],37.5%
same,"pyrexia related to MK-2206, percent of patients",[1],54.2%
same,"rash related to MK-2206, percent of patients",[1],83.3%
same,"stomatitis related to MK-2206, percent of patients",[1],58.3%
